From ChEMBL document CHEMBL1743141, “Membrane transporters in drug development” (Nat Rev Drug Discov, 2010) come the findings set out here.

Common to all, as to assay type: ADME
The target of series [1] is T1, ATP-binding cassette sub-family C member 4 (Homo sapiens, UniProt O15439).
T1 sequence (O15439 whole entry): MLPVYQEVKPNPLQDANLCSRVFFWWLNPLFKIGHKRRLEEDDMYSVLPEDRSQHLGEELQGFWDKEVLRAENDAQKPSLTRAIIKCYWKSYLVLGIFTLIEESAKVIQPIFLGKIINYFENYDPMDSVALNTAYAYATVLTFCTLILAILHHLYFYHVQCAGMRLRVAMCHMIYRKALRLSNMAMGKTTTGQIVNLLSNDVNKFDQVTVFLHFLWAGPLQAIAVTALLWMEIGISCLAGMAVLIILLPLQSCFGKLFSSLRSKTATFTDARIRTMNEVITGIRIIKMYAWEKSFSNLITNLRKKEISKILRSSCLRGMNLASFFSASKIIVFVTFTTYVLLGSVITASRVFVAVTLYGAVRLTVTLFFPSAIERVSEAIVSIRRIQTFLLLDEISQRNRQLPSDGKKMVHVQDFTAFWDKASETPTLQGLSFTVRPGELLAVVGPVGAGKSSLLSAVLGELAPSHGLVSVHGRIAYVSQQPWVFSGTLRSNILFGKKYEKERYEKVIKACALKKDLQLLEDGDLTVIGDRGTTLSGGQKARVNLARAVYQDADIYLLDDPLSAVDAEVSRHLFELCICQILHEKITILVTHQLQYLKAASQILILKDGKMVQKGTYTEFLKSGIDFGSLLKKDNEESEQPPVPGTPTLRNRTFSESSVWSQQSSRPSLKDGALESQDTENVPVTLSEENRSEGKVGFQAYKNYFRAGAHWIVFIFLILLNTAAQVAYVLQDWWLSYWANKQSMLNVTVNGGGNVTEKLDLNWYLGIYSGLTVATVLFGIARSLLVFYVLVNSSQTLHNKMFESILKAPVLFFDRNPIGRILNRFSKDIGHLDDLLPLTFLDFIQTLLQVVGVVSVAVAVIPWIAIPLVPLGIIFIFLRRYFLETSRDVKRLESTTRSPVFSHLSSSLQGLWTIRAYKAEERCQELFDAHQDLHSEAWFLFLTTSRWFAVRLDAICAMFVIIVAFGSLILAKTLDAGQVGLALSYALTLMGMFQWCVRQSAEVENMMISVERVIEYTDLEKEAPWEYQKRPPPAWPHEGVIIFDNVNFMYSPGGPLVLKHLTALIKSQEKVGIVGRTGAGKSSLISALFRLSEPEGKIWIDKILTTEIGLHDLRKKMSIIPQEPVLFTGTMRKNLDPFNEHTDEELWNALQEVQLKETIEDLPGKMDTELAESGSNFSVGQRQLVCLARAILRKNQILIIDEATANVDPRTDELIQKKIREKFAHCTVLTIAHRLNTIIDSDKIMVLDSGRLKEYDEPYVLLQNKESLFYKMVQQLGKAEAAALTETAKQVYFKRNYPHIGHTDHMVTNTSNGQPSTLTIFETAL
In words: Inhibitors of transporters of clinical importance in the absorption and disposition of drugs, MRP4.

In series [2] the target is ATP-binding cassette sub-family C member 3 (Homo sapiens, UniProt O15438). In words: Inhibitors of transporters of clinical importance in the absorption and disposition of drugs, MPR3.
The target of series [3] is ATP-binding cassette sub-family C member 2 (Homo sapiens, UniProt Q92887). In words: Inhibitors of transporters of clinical importance in the absorption and disposition of drugs, MRP2.
Series [4] concerns the target T2, Solute carrier family 15 member 2 (Homo sapiens, UniProt Q16348).
T2 sequence (Q16348 whole entry): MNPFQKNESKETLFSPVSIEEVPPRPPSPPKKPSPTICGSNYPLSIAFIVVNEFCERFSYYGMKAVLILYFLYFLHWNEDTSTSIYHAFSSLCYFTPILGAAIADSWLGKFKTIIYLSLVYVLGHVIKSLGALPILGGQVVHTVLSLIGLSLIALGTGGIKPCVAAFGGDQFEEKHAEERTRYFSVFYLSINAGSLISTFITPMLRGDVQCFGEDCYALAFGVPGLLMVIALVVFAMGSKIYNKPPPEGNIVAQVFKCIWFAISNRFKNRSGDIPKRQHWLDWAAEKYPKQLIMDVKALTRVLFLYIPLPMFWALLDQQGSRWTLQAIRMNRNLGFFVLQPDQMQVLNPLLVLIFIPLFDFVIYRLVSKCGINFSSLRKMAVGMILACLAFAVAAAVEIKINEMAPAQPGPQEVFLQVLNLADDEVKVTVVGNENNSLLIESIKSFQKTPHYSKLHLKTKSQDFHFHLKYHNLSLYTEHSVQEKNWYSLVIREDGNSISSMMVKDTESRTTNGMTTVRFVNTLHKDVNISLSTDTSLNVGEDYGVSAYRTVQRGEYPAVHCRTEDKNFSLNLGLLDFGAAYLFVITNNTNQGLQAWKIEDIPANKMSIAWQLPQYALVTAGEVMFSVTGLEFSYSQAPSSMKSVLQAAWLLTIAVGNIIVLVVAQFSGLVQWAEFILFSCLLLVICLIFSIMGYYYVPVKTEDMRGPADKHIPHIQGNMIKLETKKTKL
In words: Inhibitors of transporters of clinical importance in the absorption and disposition of drugs, PEPT2.

The target of series [5] is T3, Solute carrier organic anion transporter family member 1B1 (Homo sapiens, UniProt Q9Y6L6).
T3 sequence (Q9Y6L6 whole entry): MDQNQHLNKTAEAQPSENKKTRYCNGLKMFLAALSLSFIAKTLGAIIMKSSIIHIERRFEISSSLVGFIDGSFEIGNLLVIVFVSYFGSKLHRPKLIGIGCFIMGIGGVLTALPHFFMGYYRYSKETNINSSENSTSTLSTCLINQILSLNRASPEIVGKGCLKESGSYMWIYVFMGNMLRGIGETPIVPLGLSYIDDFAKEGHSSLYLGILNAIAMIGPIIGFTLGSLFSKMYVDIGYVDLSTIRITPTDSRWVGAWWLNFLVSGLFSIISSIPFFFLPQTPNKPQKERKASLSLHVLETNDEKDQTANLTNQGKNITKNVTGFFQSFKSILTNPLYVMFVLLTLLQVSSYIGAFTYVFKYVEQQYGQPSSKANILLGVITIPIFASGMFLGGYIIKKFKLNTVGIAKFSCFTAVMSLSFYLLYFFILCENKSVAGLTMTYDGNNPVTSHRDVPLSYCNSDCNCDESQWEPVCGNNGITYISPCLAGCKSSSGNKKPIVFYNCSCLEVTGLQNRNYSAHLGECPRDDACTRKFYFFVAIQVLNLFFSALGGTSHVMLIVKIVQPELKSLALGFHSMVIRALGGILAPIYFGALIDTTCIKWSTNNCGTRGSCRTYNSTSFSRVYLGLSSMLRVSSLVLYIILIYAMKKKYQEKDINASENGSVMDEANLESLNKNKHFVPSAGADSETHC
In words: Inhibitors of transporters of clinical importance in the absorption and disposition of drugs, OATP1B1.

Series [6] addresses T4, Solute carrier organic anion transporter family member 1B3 (Homo sapiens, UniProt Q9NPD5).
T4 sequence (Q9NPD5 whole entry): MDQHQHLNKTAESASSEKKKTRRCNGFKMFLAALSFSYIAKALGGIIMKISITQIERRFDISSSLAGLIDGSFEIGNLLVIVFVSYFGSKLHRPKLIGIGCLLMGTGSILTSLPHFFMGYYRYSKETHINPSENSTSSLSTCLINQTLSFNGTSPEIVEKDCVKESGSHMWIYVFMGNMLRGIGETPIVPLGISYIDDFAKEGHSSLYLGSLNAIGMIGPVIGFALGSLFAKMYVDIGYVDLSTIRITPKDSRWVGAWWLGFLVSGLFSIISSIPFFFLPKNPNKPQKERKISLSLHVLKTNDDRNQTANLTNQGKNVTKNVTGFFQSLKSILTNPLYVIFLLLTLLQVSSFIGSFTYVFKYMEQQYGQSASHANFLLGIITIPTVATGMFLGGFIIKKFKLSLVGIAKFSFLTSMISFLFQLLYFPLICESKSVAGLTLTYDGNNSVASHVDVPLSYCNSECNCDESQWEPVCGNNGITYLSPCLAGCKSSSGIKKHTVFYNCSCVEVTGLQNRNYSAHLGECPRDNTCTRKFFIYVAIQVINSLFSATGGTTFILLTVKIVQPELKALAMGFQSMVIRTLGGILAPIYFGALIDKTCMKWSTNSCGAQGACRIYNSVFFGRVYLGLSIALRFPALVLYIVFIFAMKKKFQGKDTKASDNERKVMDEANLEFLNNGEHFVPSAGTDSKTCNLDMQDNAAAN
In words: Inhibitors of transporters of clinical importance in the absorption and disposition of drugs, OATP1B3.

The target of series [7] is T5, Solute carrier organic anion transporter family member 1A2 (Homo sapiens, UniProt P46721).
T5 sequence (P46721 whole entry): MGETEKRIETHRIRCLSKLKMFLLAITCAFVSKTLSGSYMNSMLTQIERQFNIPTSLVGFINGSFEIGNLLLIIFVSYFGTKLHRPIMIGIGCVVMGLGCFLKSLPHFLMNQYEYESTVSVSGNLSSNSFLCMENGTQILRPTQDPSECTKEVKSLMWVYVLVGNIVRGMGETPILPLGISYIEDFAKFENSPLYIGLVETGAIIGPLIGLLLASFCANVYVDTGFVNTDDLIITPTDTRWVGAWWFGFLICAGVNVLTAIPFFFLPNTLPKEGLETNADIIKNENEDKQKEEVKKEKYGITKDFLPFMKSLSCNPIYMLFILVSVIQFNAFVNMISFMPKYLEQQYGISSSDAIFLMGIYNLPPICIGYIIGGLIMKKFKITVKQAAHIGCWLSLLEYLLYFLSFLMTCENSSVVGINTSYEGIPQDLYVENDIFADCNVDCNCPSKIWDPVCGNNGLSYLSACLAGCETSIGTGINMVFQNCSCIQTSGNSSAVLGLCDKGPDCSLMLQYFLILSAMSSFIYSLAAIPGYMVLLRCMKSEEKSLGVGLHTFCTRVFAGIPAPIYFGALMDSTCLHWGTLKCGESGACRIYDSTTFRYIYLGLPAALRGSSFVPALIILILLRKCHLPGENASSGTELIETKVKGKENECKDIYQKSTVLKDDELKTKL
In words: Inhibitors of transporters of clinical importance in the absorption and disposition of drugs, OATP1A2.

The target of series [8] is T6, Organic anion transporter 3 (Homo sapiens, UniProt Q8TCC7).
T6 sequence (Q8TCC7 whole entry): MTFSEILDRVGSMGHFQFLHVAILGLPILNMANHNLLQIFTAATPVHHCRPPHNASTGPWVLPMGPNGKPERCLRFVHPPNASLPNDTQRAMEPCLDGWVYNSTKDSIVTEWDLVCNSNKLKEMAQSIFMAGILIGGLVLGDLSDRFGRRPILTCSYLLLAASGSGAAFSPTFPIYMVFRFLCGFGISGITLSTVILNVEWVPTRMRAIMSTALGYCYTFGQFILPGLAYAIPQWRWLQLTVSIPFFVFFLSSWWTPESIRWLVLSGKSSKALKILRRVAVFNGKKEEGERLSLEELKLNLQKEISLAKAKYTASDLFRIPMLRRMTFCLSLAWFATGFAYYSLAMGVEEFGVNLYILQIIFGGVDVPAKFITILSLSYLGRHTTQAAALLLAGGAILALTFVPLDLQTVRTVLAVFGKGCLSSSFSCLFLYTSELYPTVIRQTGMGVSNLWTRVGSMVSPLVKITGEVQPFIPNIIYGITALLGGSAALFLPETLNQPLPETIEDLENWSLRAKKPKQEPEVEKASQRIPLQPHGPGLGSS
In words: Inhibitors of transporters of clinical importance in the absorption and disposition of drugs, OAT3.

ATP-binding cassette sub-family C member 3, sequence (O15438 whole entry): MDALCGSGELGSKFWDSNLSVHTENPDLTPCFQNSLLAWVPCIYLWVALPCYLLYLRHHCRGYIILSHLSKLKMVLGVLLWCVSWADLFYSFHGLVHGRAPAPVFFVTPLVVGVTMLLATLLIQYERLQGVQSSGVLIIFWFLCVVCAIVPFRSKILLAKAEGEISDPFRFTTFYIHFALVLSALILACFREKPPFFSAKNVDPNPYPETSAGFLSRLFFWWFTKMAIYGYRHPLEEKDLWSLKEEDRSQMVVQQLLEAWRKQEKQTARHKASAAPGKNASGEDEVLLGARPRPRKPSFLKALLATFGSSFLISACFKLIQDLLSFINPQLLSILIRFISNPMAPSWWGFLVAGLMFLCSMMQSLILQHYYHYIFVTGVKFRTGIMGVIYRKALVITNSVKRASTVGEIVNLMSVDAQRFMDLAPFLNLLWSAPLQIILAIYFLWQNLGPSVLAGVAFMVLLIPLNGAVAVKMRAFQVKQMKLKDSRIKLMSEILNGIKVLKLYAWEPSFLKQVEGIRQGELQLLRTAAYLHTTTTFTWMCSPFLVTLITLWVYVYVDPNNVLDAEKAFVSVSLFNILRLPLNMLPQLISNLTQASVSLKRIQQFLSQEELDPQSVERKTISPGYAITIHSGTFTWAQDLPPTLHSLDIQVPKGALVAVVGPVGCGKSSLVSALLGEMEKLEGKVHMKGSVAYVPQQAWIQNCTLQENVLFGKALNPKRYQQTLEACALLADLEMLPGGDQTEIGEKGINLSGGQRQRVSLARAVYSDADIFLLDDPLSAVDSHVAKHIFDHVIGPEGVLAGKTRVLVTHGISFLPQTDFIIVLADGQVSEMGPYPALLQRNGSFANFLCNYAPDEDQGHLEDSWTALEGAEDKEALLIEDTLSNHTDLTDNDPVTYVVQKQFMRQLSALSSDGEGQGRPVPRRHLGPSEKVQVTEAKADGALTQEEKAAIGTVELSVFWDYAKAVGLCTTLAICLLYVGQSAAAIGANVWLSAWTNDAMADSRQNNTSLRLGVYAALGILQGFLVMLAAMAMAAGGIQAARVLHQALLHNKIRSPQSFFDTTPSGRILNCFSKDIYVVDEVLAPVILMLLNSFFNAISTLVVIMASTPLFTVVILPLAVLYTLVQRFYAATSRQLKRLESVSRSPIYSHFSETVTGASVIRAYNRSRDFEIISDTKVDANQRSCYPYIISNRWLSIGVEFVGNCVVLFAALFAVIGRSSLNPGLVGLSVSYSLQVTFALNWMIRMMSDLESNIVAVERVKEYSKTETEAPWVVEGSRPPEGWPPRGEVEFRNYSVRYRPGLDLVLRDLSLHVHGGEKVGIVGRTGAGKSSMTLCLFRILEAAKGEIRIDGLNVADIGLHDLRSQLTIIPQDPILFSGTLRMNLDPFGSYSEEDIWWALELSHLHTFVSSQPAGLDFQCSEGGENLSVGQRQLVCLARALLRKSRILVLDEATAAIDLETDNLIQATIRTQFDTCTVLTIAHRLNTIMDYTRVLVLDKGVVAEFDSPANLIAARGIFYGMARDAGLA
ATP-binding cassette sub-family C member 2, sequence (Q92887 whole entry): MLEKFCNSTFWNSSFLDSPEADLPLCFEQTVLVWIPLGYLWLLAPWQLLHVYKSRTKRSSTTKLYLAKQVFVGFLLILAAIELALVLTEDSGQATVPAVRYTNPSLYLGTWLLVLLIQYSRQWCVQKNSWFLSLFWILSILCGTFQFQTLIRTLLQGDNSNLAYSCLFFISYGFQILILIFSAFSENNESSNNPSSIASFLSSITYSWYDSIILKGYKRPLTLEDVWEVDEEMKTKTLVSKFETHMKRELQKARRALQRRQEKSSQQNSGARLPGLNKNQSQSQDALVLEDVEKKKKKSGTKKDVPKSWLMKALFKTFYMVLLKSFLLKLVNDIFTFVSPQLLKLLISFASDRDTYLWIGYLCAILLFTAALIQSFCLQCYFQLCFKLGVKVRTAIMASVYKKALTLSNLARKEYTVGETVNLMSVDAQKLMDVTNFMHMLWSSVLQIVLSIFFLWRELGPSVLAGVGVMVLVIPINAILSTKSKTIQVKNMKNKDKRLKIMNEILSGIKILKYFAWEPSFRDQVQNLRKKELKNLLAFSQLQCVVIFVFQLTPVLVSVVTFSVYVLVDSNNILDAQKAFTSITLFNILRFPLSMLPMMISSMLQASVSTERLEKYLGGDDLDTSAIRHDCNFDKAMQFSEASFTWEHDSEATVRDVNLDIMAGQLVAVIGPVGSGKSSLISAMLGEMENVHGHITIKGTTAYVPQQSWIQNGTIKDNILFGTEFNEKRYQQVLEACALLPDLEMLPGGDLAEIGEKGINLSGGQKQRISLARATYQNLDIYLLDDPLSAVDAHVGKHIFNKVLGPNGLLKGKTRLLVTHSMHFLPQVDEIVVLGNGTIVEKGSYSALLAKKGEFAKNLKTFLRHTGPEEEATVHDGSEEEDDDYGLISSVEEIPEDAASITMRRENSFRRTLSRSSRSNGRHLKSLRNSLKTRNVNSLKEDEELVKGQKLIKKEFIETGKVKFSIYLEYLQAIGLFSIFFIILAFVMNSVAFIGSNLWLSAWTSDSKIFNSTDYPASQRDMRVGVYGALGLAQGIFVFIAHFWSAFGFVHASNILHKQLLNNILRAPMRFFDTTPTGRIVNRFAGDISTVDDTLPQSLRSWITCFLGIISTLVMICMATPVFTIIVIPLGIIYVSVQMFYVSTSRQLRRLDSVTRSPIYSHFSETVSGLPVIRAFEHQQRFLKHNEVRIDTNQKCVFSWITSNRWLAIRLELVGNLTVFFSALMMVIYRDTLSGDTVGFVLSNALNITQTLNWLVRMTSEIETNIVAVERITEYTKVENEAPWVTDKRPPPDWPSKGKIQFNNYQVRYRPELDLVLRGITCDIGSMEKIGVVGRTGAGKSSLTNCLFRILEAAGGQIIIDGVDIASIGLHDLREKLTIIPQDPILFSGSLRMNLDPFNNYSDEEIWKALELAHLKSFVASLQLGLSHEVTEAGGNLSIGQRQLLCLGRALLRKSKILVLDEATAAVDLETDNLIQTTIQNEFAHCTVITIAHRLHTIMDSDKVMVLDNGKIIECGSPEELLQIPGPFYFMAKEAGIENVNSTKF

`Cc1ccc(-c2cc(C(F)(F)F)nn2-c2ccc(S(N)(=O)=O)cc2)cc1` [CELECOXIB]: the Activity entry in series [1] is recorded as “transporter inhibitor”.

On to `CC(C)Nc1cccnc1N1CCN(C(=O)c2cc3cc(NS(C)(=O)=O)ccc3[nH]2)CC1` [DELAVIRDINE], for which the Activity entry in series [2] and in series [3] was “transporter inhibitor” throughout.

Turning to `O=C(O)Cc1ccccc1Nc1c(Cl)cccc1Cl` [DICLOFENAC], in series [1], the Activity entry was “transporter inhibitor”.

Take `O=C1Nc2ccc(Cl)cc2[C@@](C#CC2CC2)(C(F)(F)F)O1` [EFAVIRENZ]: the Activity result in series [2] and in series [3] was “transporter inhibitor” each time.

As to `Nc1nc(=O)n([C@@H]2CS[C@H](CO)O2)cc1F` [EMTRICITABINE], the Activity result in series [2] and in series [3] was “transporter inhibitor” each time.

Turning to `CCC(=O)O[C@@H](O[P@](=O)(CCCCc1ccccc1)CC(=O)N1C[C@H](C2CCCCC2)C[C@H]1C(=O)O)C(C)C` [FOSINOPRIL], the Activity entry in series [4] is “transporter inhibitor”.

Take `Cc1cccc(C)c1OCC(=O)N[C@@H](Cc1ccccc1)[C@@H](O)C[C@H](Cc1ccccc1)NC(=O)[C@H](C(C)C)N1CCCNC1=O` [LOPINAVIR]: the Activity entry in series [5], in series [6] and in series [7] was “transporter inhibitor” throughout.

Regarding `CCCN(CCC)S(=O)(=O)c1ccc(C(=O)O)cc1` [PROBENECID], in series [8], the Activity entry is “transporter inhibitor”.

`C[C@H](CSC(=O)c1ccccc1)C(=O)N1C[C@@H](Sc2ccccc2)C[C@H]1C(=O)O` [ZOFENOPRIL]: the Activity entry in series [4] is “transporter inhibitor”.
